How the values were obtained:
[1] = Determination of particle size and polydispersity index of lipid nanoparticles (Malvern particle size analyzer); assay type: physicochemical
Protocol: (§1) In this example, the total lipid phase concentration of 1 mg/mL was formulated in anhydrous ethanol at the molar ratio of ionizable lipid (Compound 1, Compound 11 or Compound 12):helper lipid (DSPC or DOPE):cholesterol:DMG-PEG2000=50%:10%:38.5%:1.5%. Luc-eGFP mRNA at the corresponding concentration was dissolved in 50 mM citric acid buffer with an aqueous buffer solution of pH4.0. The mass ratio of mRNA to the total lipids was 1:30.
(§2) LNPs were prepared using the formulation-screening chip from Micro & Nano at a total flow rate of 12 ml/min and a flow rate ratio of 1:3 between the lipid phase and the aqueous phase. The lipid nanoparticles were collected and dialyzed with PBS overnight at 4° C. to remove ethanol and acidic buffer salts. The dialysate volume was 400 times or more the sample volume. The dialyzed sample was filtered through a 0.2-μm filter membrane. Lipid nanoparticles could also be prepared by other methods, such as injection mixing, in addition to using microfluidic chips. After being dialyzed and filtered, the sample was concentrated using a 10 kDa cellulose ultrafiltration membrane. The centrifugation parameter was 1000 g to 2000 g, and the centrifugation time was 30 min to 1 hour. The centrifugation temperature was 4° C.
2. Determination of particle size: The particle size and polydispersity index (PDI) of the prepared lipid nanoparticles were measured using a Malvern particle size analyzer.
(§3) The nucleic acid delivery efficiency of lipid nanoparticles was characterized by observing the fluorescence expression in mice. The lipid nanoparticles were prepared at a molar ratio of ionizable lipid (Compound 17, Compound 15, Compound 18, Compound 2 or MC3):DSPC:cholesterol:DSPE-PEG2000=50%:10%:39.5%:0.5%. Female C57/BL6 mice weighing 18 to 22 g were selected. After acclimation, the Luc-eGFP mRNA-encapsulated lipid nanoparticles were injected subretinally into mice (both eyes) at a dose of 0.9 μg (±10%) mRNA (1 μl, in a sterile PBS solution) per eye. In order to observe the expression of luciferase, the luciferase substrate was dissolved into a sterile PBS solution and prepared into a solution at a concentration of 30 mg/ml.

[2] = test system: Luc-eGFP mRNA; test: Determination of encapsulation efficiency of mRNAs (Quant-iT RiboGreen RNA kit); assay type: physicochemical
Protocol: as §1, §2
For mRNA-encapsulated lipid nanoparticles, the assay specified in the Quant-iT™ RiboGreen® RNA kit could be employed. The specific operations were as follows: The sample was diluted 10 to 20 folds with a TE buffer solution (10 mM Tris-HCl, 1 mM EDTA, pH 7.5). An equal volume of demulsifier (2% Triton X-100) was added to the sample to be tested and then the solution was diluted 10 to 20 folds again. The RiboGreen® reagent was diluted 100 folds in the TE buffer solution, and 100 μl of the diluted solution was added to a 96-well plate. 100 μl of the sample to be tested was added to the corresponding 96-well plate. Meanwhile, a standard curve was plotted using the mRNA standard. The fluorescence value at 520 nm excited by 480 nm excitation light was read using a microplate reader. The concentrations of the encapsulated and free mRNAs were calculated based on the standard curve.
as §3

[3] = test system: luciferase; test: Subretinal injection in mice, chemiluminescence from Luc-eGFP mRNA delivered by lipid nanoparticles; assay type: in vivo, Female C57/BL6 mice; settings: LNP ionizable lipid:DSPC:cholesterol:DSPE-PEG2000 = 50:10:39.5:0.5, both eyes, 0.9 μg (±10%) mRNA per eye
Protocol: as §3
(§4) Imaging in mice: 18 hours after drug administration, 150 μl of luciferase substrate solution was injected intraperitoneally into each mouse. The mice were allowed to stand for 5 min, and then anesthetized for 3 min in a carbon dioxide box. After anesthesia, the mice were put in a small animal in vivo imager for imaging.

[4] = test system: luciferase; test: In vivo delivery of luciferase mRNA in animals, tail vein injection, chemiluminescence imaging; set-up: species or system Female C57/BL6 mice; settings: Luc-eGFP mRNA 0.5 mg/kg, mice, 6 h after injection
Protocol: as §1
The nucleic acid delivery efficiency of lipid nanoparticles was characterized by observing the fluorescence expression in mice. The Luc-eGFP mRNA-encapsulated lipid nanoparticles prepared in Example 9 were injected at a certain dose into mice via the tail vein. Female C57/BL6 mice weighing 18 to 22 g were randomly grouped, with two mice in each group. After acclimation, Luc-eGFP mRNA-encapsulated LNPs (in a sterile PBS solution) were injected via the tail vein at a dose of 0.5 mg/kg (0.5 mg here referring to the dose of mRNA). In order to observe the expression of luciferase, the luciferase substrate was dissolved into a sterile PBS solution and prepared into a solution at a concentration of 30 mg/ml.
as §4, with “Six” for “Imaging in mice: 18”, “injection of LNPs,” for “drug administration,”, “ul” for “μl”

[5] = LNP ionizable lipid:DSPC:cholesterol:DSPE-PEG2000 = 50:10:39.5:0.5, Luc-eGFP mRNA
[6] = LNP with helper lipid DOPE, ionizable lipid:helper lipid:cholesterol:DMG-PEG2000 = 50:10:38.5:1.5, Luc-eGFP mRNA:total lipids 1:30
[7] = LNP with helper lipid DSPC, ionizable lipid:helper lipid:cholesterol:DMG-PEG2000 = 50:10:38.5:1.5, Luc-eGFP mRNA:total lipids 1:30

Compound | PDI [1, 5] | Particle Size [1, 5] [nm] | Nucleic Acid Encapsulation Efficiency [2, 5] [%] | PDI [1, 6] | Particle Size [1, 6] [nm] | PDI [1, 7] | Particle Size [1, 7] [nm] | Nucleic Acid Encapsulation Efficiency [2, 6] [%] | Nucleic Acid Encapsulation Efficiency [2, 7] [%] | Luminous Intensity 18 h [3] [p/s/cm^2/sr] | Luminous Intensity 6 h ([4]; LNP with helper lipid DOPE) [p/s/cm^2/sr] | Luminous Intensity 6 h ([4]; LNP with helper lipid DSPC) [p/s/cm^2/sr]
CCCCCCCCC(CCCCCC)C(=O)OCCCCCCN(CCCCCCOC(=O)C(CCCCCC)CCCCCCCC)CCOC(=O)NCCN(CC)CC (stereo not shown) [Compound 1] |  |  |  | 0.082 | 99.86 | 0.135 | 111.7 | 95.42 | 93.01 |  | 1.6E+9 | 3.4E+8
CCCCCCCCC(C)C(=O)OCCCCCCN(CCCCCCOC(=O)C(CCCCCC)CCCCCCCC)CCOC(=O)NCCN(CC)CC (stereo not shown) [Compound 11] |  |  |  |  |  | 0.215 | 96.88 |  | 97.13 |  |  | 7.2E+7
CCCCCCCCC(CCCC)C(=O)OCCCCCCN(CCCCCCOC(=O)C(CCCCCC)CCCCCCCC)CCOC(=O)NCCN(CC)CC (stereo not shown) [Compound 12] |  |  |  |  |  | 0.22 | 123 |  | 97.58 |  |  | 3.1E+8
CCCCC/C=C\C/C=C\CCCCCCCCC(CCCCCCCC/C=C\C/C=C\CCCCC)OC(=O)CCCN(C)C [MC3, DLin-MC3-DMA, reference compound] | 0.24 | 149.0 | 96.6 |  |  |  |  |  |  | 5E+6 |  | 1.35E+8

Further lines, with some results ahead:

PDI [1, 5] | Particle Size [1, 5] [nm] | Nucleic Acid Encapsulation Efficiency [2, 5] [%] | PDI [1, 6] | Particle Size [1, 6] [nm] | PDI [1, 7] | Particle Size [1, 7] [nm] | Nucleic Acid Encapsulation Efficiency [2, 6] [%] | Nucleic Acid Encapsulation Efficiency [2, 7] [%] | Compound | Luminous Intensity 18 h [3] [p/s/cm^2/sr] | Luminous Intensity 6 h ([4]; LNP with helper lipid DOPE) [p/s/cm^2/sr] | Luminous Intensity 6 h ([4]; LNP with helper lipid DSPC) [p/s/cm^2/sr]
0.22 | 149.7 | 98.2 |  |  |  |  |  |  | CCCCCCCCCOC(=O)CCCCCCCN(CCCCCCCC(=O)OC(CCCCCCCC)CCCCCCCC)CCOC(=O)NCCN(C)CC [Compound 15] | 2.6E+7 |  | 
0.14 | 121.7 | 96.0 |  |  |  |  |  |  | CCCCCCCCCOC(=O)CCCCCCCN(CCCCCCCC(=O)OC(CCCCCCCC)CCCCCCCC)CCOC(=O)NCCN(CC)CC [Compound 18] | 1E+7 |  | 
0.19 | 147.2 | 99.3 |  |  |  |  |  |  | CCCCCCCCC(CCCCCC)C(=O)OCCCCCCN(CCCCCCOC(=O)C(CCCCCC)CCCCCCCC)CCOC(=O)NCCN(C)CC (stereo not shown) [Compound 2] | 2E+8 |  | 
0.36 | 90.31 | 99.4 |  |  |  |  |  |  | CCCCCCCCCOC(=O)CCCCCCCN(CCCCCCCC(=O)OC(CCCCCCCC)CCCCCCCC)CCOC(=O)NCCCN(C)C [Compound 17] | 3.4E+8 |  | 

Source: patent US20260294810A1, “IONIZABLE LIPID COMPOUND, LIPID CARRIER COMPRISING SAME, AND APPLICATION” (INNOVEC BIOTHERAPEUTICS, priority 2023, published 2026)
